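Test compounds were applied to cells in 96-well plates for 48 hours at 5 doses. GI50 is the concentration that inhibits growth by half.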 Calls of active or inactive are those of the source. Rule as the data show it: active = GI50 up to about 1.1 µM and inactive = higher.

Among the test systems are RXF 393; SR; K562; OVCAR-4; NCI-H460; SK-MEL-5; MOLT-4; OVCAR-8; CCRF-CEM; HCT-15; UO-31; SF-539; SK-MEL-2; M14; SK-OV-3; NCI-H226; UACC-257; MDA-MB-231; CAKI-1.
What all share (assay): NCI-60 cell line screen, 48 h

For `CC1(C)[C@@H]2CC[C@@]1(C)[C@H](O)[C@@H]2SCc1ccccc1`, the GI50 with RXF 393 was 18.5 µM (inactive); in the test with SR, 28.8 µM (inactive); in the test with K562, 25.2 µM (inactive); with OVCAR-4, 12.9 µM (inactive); in the test on NCI-H460, 19.2 µM (inactive); with SK-MEL-5 it was 15.4 µM (inactive). Further, the GI50 in the test on MOLT-4 is 16.5 µM (inactive); with OVCAR-8, 19.1 µM (inactive); in the test on CCRF-CEM, 19 µM (inactive); with HCT-15, 14.8 µM; with UO-31 it was 21 µM (inactive); in the test on SF-539, 17.8 µM (inactive). Also, the GI50 in the test on SK-MEL-2 was 18.1 µM (inactive); with M14, 15 µM (inactive); in the test on SK-OV-3 it was 20.5 µM (inactive); in the test on NCI-H226, 18.7 µM (inactive); in the test on UACC-257 it was 14 µM (inactive); with MDA-MB-231, 16.8 µM (inactive). Also, the GI50 in the test with CAKI-1 was 25.1 µM (inactive).
For `O=C(/C=C/c1ccccc1)CCC1C(=O)NC(=S)NC1=O`, the GI50 with RXF 393, in the test on K562, in the test with NCI-H460, in the test on SK-MEL-5, in the test on MOLT-4 and in the test with OVCAR-8 was > 100 µM (inactive) throughout. Moreover, the GI50 is over 100 µM in the test on HCT-15; > 100 µM (inactive) in the test with UO-31; > 100 µM (inactive) with SF-539; > 100 µM (inactive) with SK-MEL-2; > 100 µM (inactive) with M14; > 100 µM (inactive) in the test with SK-OV-3. In addition, the GI50 with NCI-H226 was > 100 µM (inactive); with UACC-257, > 100 µM (inactive); in the test on MDA-MB-231 it was > 100 µM (inactive); with CAKI-1, 26.5 µM (inactive).
Regarding `O=C1OC(c2ccccc2)=N/C1=C\c1ccc(F)cc1`, the GI50 with RXF 393 is > 100 µM (inactive); with SR it was > 100 µM (inactive); with K562, > 100 µM (inactive); in the test on OVCAR-4, 97.3 µM (inactive); with NCI-H460 it was > 100 µM (inactive); in the test with SK-MEL-5, 80.5 µM (inactive). For the same compound, the GI50 is 50.6 µM (inactive) in the test with MOLT-4; 47 µM (inactive) in the test with OVCAR-8; 35.8 µM (inactive) with CCRF-CEM; over 100 µM in the test on HCT-15; > 100 µM (inactive) with UO-31; > 100 µM (inactive) in the test with SK-MEL-2. In addition, the GI50 is > 100 µM (inactive) in the test on M14; > 100 µM (inactive) in the test with SK-OV-3; 35.6 µM (inactive) in the test on NCI-H226; > 100 µM (inactive) in the test with UACC-257; > 100 µM (inactive) in the test on MDA-MB-231; > 100 µM (inactive) in the test on CAKI-1.
Turning to `Nn1c(Cc2ccc(Cl)cc2)n[nH]c1=O`, the GI50 in the test with RXF 393, with SR, with K562, in the test with OVCAR-4, in the test on NCI-H460 and in the test with SK-MEL-5 was > 100 µM (inactive) throughout. The GI50 with MOLT-4 was > 100 µM (inactive); in the test on OVCAR-8, > 100 µM (inactive); in the test with CCRF-CEM it was > 100 µM (inactive); in the test on HCT-15, over 100 µM; with UO-31, 34.3 µM (inactive); in the test on SF-539, > 100 µM (inactive). Moreover, the GI50 with SK-MEL-2, with M14, in the test on SK-OV-3, with NCI-H226, in the test on UACC-257 and in the test with MDA-MB-231 was > 100 µM (inactive) each time. Further, in the test with CAKI-1, the GI50 was 50.5 µM (inactive).

The values above are taken from ChEMBL document CHEMBL1201862, “PubChem BioAssay data set” (2004).
